Results as given in US8962655B2, “Composition for treatment of undifferentiated gastric cancer” (Eisai R&D Management Co., Ltd., priority 2007, dated 2015).

Assays:
Format in all cases: in vivo
[1] = test system: human scirrhous gastric cancer cell line (HSC-39); test: Combination use with 5-fluorouracil in subcutaneous transplanted (xenograft) models of HSC-39; settings: HSC-39 xenograft, nude mice
Procedure: (§1) Human scirrhous gastric cancer cell line HSC-39 (purchased from Immuno-Biological Laboratories Co., Ltd.) was cultured in RPMI1640 (containing 10% FBS) in a 5% carbon dioxide gas incubator at 37° C. to about 80% confluence, and then the cells were collected with trypsin-EDTA. A 5×10^7 cells/mL suspension was prepared with a phosphate buffer, and each 0.1 mL of the resulting cell suspension was subcutaneously transplanted to nude mice at the side of their bodies. Thirteen days after the transplantation, 4-(3-chloro-4-(cyclopropylaminocarbonyl)aminophenoxy)-7-methoxy-6-quinolinecarboxamide (3, 10 or 30 mg/kg, once a day for four weeks, oral) and 5-fluorouracil (Kyowa Hakko) (50 mg/kg, every four days for three times, intravenous) were administered alone or in combination. The major and minor axes of tumors were measured with Digimatic caliper (Mitsutoyo Corporation), and tumor volumes and relative tumor volumes were calculated according to the following formulae: […]

[2] = test system: human scirrhous gastric cancer cell line (HSC-39); test: Combination use with irinotecan hydrochloride in subcutaneous transplanted (xenograft) models of HSC-39; settings: once a day for four weeks, oral, HSC-39 xenograft, nude mice
Procedure: Human scirrhous gastric cancer cell line HSC-39 (purchased from Immuno-Biological Laboratories Co,. Ltd.) was cultured in RPMI1640 (containing 10% FBS) in a 5% carbon dioxide gas incubator at 37° C. to about 80% confluence, and then the cells were collected with trypsin-EDTA. A 5×10^7 cells/mL suspension was prepared with a phosphate buffer, and each 0.1 mL of the resulting cell suspension was subcutaneously transplanted to nude mice at the side of their bodies.
Twelve days after the transplantation, 4-(3-chloro-4-(cyclopropylaminocarbonyl)aminophenoxy)-7-methoxy-6-quinolinecarboxamide (3, 10 or 30 mg/kg, once a day for four weeks, oral) and irinotecan hydrochloride (Daiichi Seiyaku) (100 mg/kg, every four days for three times, intravenous) were administered alone or in combination. The major and minor axes of tumors were measured with Digimatic caliper (Mitsutoyo Corporation), and tumor volumes and relative tumor volumes were calculated according to the following formulae: Tumor Volume (TV)=Major axis of tumor (mm)×(Minor axis of tumor)^2 (mm^2)/2 Relative Tumor Volume (RTV)=Tumor volume on measurement day/Tumor volume on the first administration day.

[3] = test system: human scirrhous gastric cancer cell line (HSC-39); test: Combination use with paclitaxel in subcutaneous transplanted (xenograft) models of HSC-39; settings: HSC-39 xenograft, nude mice
Procedure: as §1, with “Eleven” for “Thirteen”, “paclitaxel (Calbiochem) (14” for “5-fluorouracil (Kyowa Hakko) (50”, “once a day” for “every four days”, “five days,” for “three times,”

[4] = Compound A 3 mg/kg alone, once a day for four weeks, oral
[5] = Compound A 10 mg/kg alone, once a day for four weeks, oral
[6] = Compound A 30 mg/kg alone, once a day for four weeks, oral

O=c1[nH]cc(F)c(=O)[nH]1 [5-Fluorouracil, 5-fluorouracil, reference compound]
Relative tumor volume on Day 29 Average ± standard deviation ([1]; 5-fluorouracil 50 mg/kg alone, every four days for three times, intravenous): 5.16 ± 1.37

COc1cc2nccc(Oc3ccc(NC(=O)NC4CC4)c(Cl)c3)c2cc1C(N)=O [Compound A, 4-(3-chloro-4-(cyclopropylaminocarbonyl)aminophenoxy)-7-methoxy-6-quinolinecarboxamide]
Relative tumor volume on Day 29 Average ± standard deviation ([2]; Compound A 3 mg/kg alone): 4.29 ± 1.51
Relative tumor volume on Day 29 Average ± standard deviation ([2]; Compound A 10 mg/kg alone): 2.93 ± 1.55
Relative tumor volume on Day 29 Average ± standard deviation ([2]; Compound A 30 mg/kg alone): 1.76 ± 0.92
Relative tumor volume on Day 29 Average ± standard deviation [1, 4]: 4.16 ± 1.28
Relative tumor volume on Day 29 Average ± standard deviation [1, 5]: 3.73 ± 1.21
Relative tumor volume on Day 29 Average ± standard deviation [1, 6]: 2.72 ± 1.33
Relative tumor volume on Day 29 Average ± standard deviation [3, 4]: 3.79 ± 1.43
Relative tumor volume on Day 29 Average ± standard deviation [3, 5]: 3.27 ± 1.26
Relative tumor volume on Day 29 Average ± standard deviation [3, 6]: 1.69 ± 0.72

CC(=O)O[C@H]1C(=O)[C@@]2(C)[C@H]([C@H](OC(=O)c3ccccc3)[C@]3(O)C[C@H](OC(=O)[C@H](O)[C@@H](NC(=O)c4ccccc4)c4ccccc4)C(C)=C1C3(C)C)[C@]1(OC(C)=O)CO[C@@H]1C[C@@H]2O [Paclitaxel, paclitaxel, reference compound]
Relative tumor volume on Day 29 Average ± standard deviation ([3]; paclitaxel 14 mg/kg alone, once a day for five days, intravenous): 4.26 ± 2.06
